Key:
[1] = AUC (0 to 24 hrs) in C57BL/6 mouse at 50 mg/kg,po administrated upto 24 hrs by LC-MS/MS analysis; format: ADME, organism-based; settings: in vivo
[2] = AUC (0 to 24 hrs) in C57BL/6 mouse infected with Clostridioides difficile CD1264 at 10 mg/kg,po administrated upto 24 hrs by LC-MS/MS analysis; format: ADME, organism-based; settings: in vivo
[3] = Cmax in C57BL/6 mouse infected with Clostridioides difficile CD1264 at 50 mg/kg,po administrated upto 24 hrs by LC-MS/MS analysis; format: ADME, organism-based; settings: in vivo
[4] = Drug metabolism in human Hepatocyte assessed as metabolite formation; format: ADME, cell-based; settings: hepatocytes
[5] = Cmax in C57BL/6 mouse infected with Clostridioides difficile CD1264 at 10 mg/kg,po administrated upto 24 hrs by LC-MS/MS analysis; format: ADME, organism-based; settings: in vivo
[6] = Drug concentration in Wistar rat plasma at 50 mg/kg,po administration; format: ADME, organism-based; settings: in vivo
[7] = Cmax in C57BL/6 mouse at 10 mg/kg,po administrated upto 24 hrs by LC-MS/MS analysis; format: ADME, organism-based; settings: in vivo
[8] = Drug metabolism in human liver microsomes assessed as metabolite formation; format: ADME, Microsome
[9] = Clearance in Wistar rat plasma at 1 mg/kg,po administration; format: ADME, organism-based
[10] = Oral bioavailability in Wistar rat plasma at 50 mg/kg administration; format: ADME, organism-based
[11] = Dissociation constant, pKa of the compound; format: physicochemical
[12] = Clearance in Wistar rat blood at 1 mg/kg,po administration; format: ADME, organism-based
[13] = AUC (0 to 24 hrs) in C57BL/6 mouse infected with Clostridioides difficile CD1264 at 50 mg/kg,po administrated upto 24 hrs by LC-MS/MS analysis; format: ADME, organism-based; settings: in vivo
[14] = Half life in Wistar rat at 1 mg/kg,po administration; format: ADME, organism-based; settings: in vivo
[15] = AUC (0 to 24 hrs) in C57BL/6 mouse at 10 mg/kg,po administrated upto 24 hrs by LC-MS/MS analysis; format: ADME, organism-based; settings: in vivo
[16] = Lipophilicity, logD of the compound at pH 7.4; format: physicochemical; settings: buffer
[17] = Volume of distribution at steady state in Wistar rat at 1 mg/kg,po administration; format: ADME, organism-based; settings: in vivo
[18] = AUC (0 to infinity) in Wistar rat at 1 mg/kg,po administration; format: ADME, organism-based; settings: in vivo
[19] = Cmax in C57BL/6 mouse at 50 mg/kg,po administrated upto 24 hrs by LC-MS/MS analysis; format: ADME, organism-based; settings: in vivo

O=C(O)c1cn(C2CC2)c2cc(N3CCC(O)(COc4ccc(N5C[C@H](CO)OC5=O)cc4F)CC3)c(F)cc2c1=O [CADAZOLID]
AUC(0-t) at 24 h [1]: 78 ng·h/mL | AUC(0-t) at 24 h [2]: 27 ng·h/mL | Cmax [3]: 10 ng/mL | Drug metabolism [4]: Metabolite_Notdetected | Cmax [5]: 12 ng/mL | Cp [6]: 1 ng/mL | Cmax [7]: 3 ng/mL | Drug metabolism [8]: Metabolite_Notdetected | CL/F [9]: 65 mL/min/kg | bioavailability [10]: 0% | pKa [11]: 6 | CL/F [12]: 96 mL/min/kg | AUC(0-t) at 24 h [13]: 147 ng·h/mL | half-life [14]: 36 min | AUC(0-t) at 24 h [15]: 9 ng·h/mL | logD [16]: 1.2 | Vdss [17]: 2 L/kg | AUC(0-inf) [18]: 255 ng·h/mL | Cmax [19]: 6 ng/mL
